Active and inactive are the calls of the source.
How the values were obtained:
Coagulation factor XII = biological target: T1, Coagulation factor XII (Homo sapiens, UniProt P00748); assay: activated coagulation factor XII inhibitor potency, concentration-effect curve, cell-free (AID 716); assay type: functional
T1 sequence (P00748 whole entry): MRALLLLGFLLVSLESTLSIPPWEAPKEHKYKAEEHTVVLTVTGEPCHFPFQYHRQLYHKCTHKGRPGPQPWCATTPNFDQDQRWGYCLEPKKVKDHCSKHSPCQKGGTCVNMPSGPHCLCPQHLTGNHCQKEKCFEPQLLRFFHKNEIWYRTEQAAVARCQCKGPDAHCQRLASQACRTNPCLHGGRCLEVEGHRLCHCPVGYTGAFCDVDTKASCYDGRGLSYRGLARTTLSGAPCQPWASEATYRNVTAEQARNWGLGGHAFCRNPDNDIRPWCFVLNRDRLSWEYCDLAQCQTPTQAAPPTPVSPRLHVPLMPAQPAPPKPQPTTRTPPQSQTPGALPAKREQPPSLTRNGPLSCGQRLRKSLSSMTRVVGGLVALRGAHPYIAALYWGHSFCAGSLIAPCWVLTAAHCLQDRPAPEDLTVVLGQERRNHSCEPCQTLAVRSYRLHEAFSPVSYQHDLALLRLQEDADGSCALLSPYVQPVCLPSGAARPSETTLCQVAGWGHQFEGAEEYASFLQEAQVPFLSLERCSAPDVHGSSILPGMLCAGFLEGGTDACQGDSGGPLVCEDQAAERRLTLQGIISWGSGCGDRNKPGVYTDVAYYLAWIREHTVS

[1] = biological target: G-protein coupled receptor 55 (Homo sapiens, UniProt Q9Y2T6); assay: selective activators of receptor GPR55 – imaging, U2OS cells, beta-arrestin-GFP redistribution, primary screen (AID 1961); assay type: functional
Chain of G-protein coupled receptor 55 (Q9Y2T6 whole entry): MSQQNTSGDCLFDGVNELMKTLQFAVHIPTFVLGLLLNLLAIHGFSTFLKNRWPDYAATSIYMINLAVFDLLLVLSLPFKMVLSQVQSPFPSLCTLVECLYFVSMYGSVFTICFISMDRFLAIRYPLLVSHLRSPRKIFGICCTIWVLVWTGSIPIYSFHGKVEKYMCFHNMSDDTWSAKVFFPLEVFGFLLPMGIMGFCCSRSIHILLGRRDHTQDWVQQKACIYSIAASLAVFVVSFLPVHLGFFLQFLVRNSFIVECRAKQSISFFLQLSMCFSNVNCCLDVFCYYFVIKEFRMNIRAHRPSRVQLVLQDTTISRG

[2] = biological target: Phosphoethanolamine/phosphocholine phosphatase (Homo sapiens, UniProt Q8TCT1); assay: SAR assay for compounds that inhibit PHOSPHO1. [Related pubchem assays (depositor defined):AID1545, AID1565, AID1574]
Chain of Phosphoethanolamine/phosphocholine phosphatase (Q8TCT1 whole entry): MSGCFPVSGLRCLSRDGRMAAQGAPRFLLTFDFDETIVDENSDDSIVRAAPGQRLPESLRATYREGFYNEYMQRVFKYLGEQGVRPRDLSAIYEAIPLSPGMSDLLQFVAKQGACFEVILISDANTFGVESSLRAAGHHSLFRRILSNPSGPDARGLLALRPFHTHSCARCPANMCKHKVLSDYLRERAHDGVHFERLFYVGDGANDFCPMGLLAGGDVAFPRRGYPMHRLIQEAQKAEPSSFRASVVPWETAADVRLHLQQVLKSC

[3] = biological target: T2, Mannose-6-phosphate isomerase (Homo sapiens, UniProt P34949); assay: phosphomannose isomerase inhibition – biochemical, fluorescence intensity, confirmation (AID 1535)
T2 sequence (P34949 whole entry): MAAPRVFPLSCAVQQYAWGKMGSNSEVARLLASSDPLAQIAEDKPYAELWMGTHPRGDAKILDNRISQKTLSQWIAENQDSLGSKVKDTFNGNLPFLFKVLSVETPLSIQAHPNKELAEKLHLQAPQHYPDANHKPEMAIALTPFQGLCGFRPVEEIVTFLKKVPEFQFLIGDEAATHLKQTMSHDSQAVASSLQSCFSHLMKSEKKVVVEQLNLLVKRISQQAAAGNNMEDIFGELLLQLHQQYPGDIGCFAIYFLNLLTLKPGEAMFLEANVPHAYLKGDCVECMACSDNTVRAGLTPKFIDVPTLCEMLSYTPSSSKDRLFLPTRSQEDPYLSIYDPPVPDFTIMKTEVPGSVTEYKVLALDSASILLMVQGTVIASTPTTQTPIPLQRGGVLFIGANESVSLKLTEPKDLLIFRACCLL

Hexokinase = Hexokinase (Trypanosoma brucei, UniProt Q38C41); assay: Confirmation assay for inhibitors of Trypanosoma brucei hexokinase 1-Analogue-first series. [Related pubchem assays (depositor defined):AID1430, AID1632, AID2516, AID2560, AID2579, AID2600, AID449725, AID492951]; assay type: functional
Chain of Hexokinase (Q38C41 whole entry): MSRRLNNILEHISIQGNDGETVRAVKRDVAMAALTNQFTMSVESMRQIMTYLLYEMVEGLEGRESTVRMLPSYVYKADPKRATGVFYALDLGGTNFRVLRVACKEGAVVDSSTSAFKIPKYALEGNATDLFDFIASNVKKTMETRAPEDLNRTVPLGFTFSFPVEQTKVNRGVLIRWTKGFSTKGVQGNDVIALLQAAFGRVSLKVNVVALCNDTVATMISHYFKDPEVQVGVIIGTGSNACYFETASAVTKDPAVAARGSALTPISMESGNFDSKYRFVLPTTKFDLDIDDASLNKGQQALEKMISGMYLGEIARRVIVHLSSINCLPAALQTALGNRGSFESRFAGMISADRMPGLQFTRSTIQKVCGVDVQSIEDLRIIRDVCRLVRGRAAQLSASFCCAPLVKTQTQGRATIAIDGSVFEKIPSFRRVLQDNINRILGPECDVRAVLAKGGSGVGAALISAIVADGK

[4] = biological target: Glucose-6-phosphate 1-dehydrogenase (Homo sapiens, UniProt P11413); assay: inhibition of Homo sapiens G6PD, dose series – biochemical, fluorescence, selectivity assay for P. falciparum G6PD inhibitor project, dose response (AID 504792); assay type: functional
Chain of Glucose-6-phosphate 1-dehydrogenase (P11413 whole entry): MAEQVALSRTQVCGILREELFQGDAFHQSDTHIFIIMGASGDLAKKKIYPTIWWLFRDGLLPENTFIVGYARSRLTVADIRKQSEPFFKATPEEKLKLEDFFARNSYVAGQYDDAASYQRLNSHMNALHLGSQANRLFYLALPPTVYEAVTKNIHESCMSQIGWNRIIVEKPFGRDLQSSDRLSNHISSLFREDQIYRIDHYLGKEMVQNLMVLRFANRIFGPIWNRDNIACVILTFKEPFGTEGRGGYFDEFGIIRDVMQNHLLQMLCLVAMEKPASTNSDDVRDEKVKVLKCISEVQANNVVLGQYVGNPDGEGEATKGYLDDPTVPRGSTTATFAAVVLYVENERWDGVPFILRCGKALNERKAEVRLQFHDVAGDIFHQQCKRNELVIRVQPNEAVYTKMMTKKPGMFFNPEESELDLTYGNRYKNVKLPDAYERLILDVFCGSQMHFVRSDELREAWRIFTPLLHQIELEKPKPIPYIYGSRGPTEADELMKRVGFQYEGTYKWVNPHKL

[5] = biological target: T3, Rac GTPase-activating protein 1 (Homo sapiens, UniProt Q9H0H5); assay: blockers of MgcRacGAP-driven Rac1 GTP hydrolysis – biochemical, ADP Hunter fluorescence, primary and confirmatory, confirmation (AID 624330); assay type: functional
T3 sequence (Q9H0H5 whole entry): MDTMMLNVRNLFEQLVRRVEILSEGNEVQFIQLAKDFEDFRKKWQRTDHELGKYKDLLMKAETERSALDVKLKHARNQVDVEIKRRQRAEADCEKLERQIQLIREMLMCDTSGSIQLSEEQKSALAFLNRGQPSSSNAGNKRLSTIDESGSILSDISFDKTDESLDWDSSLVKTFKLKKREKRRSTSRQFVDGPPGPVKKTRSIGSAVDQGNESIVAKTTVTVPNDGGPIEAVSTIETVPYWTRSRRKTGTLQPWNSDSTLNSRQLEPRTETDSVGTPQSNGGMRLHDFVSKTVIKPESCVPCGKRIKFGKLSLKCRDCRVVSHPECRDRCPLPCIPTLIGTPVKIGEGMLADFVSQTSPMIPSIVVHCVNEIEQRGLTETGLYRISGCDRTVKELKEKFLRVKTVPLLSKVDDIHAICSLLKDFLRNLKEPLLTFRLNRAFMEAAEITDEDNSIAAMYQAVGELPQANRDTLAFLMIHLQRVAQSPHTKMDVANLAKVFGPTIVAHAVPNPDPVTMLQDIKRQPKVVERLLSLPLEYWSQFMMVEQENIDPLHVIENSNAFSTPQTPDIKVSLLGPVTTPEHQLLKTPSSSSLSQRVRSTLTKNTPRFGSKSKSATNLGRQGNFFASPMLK

COCCn1nnnc1C(c1cc2ccc(C)cc2[nH]c1=O)N(Cc1ccco1)Cc1cccs1 (configuration not stated)
IC50 (Coagulation factor XII): > 50 µM (inactive)

CCN(CC)c1ccc2nc3c4ccccc4c(=O)cc-3oc2c1 [NILE RED]
EC50 [1]: < 0.5 µM (active)

O=c1c2c([N+](=O)[O-])cc([N+](=O)[O-])cc2sn1-c1ccc(OC(F)(F)Cl)cc1
IC50 [2]: 0.233 µM (active)
IC50 [3]: 2.14 µM (active)

O=C(Cn1sc2ccccc2c1=O)Nc1ccccc1
IC50 (Hexokinase): 6.69 µM (active)
IC50 [4]: 12.7 µM (active)
IC50 [5]: 73.1 µM (active)
